From patent publication US12138267B2, “Methods of treating respiratory depression modulated by a non-opioid agent” (Enalare Therapeutics Inc., priority 2021, dated 2024)
Entries after “also recorded” stand apart in the source; their conditions may differ. Like-named read-outs stand apart in the source and are kept apart here.

What was measured:
[1] = Pharmacokinetics of Compound A, plasma concentrations after IV infusion; assay type: in vivo, human; conditions: for AUC(0-inf) / AUC(0-t) / clearance / Cmax / half-life / Tmax: both sexes, human, plasma, intravenous
Protocol: (§1) Subjects underwent 3 separate treatment periods. […] PD will be unblinded for treatment but not subject. […] Participant Disposition
Pharmacokinetic samples were measured up to 24 hours after the start of the IV infusion. […] Therefore, a fast decrease in concentration was observed, followed by a slow […].

[2] = test system: healthy participants; assay: Safety and tolerability; assay type: in vivo, human
Excerpt: as §1
Moreover, the only participant who developed phlebitis received placebo. […] No clinically meaningful differences between treatments were identified in any other safety parameter.

[3] = test system: healthy participants; assay: Sedation (BIS), cardiovascular response and arterial blood gases; assay type: in vivo, human; conditions: versus placebo
[4] = test system: healthy participants
[5] = test system: healthy participants; conditions: cited from earlier work
[6] = Compound A (dose not given; third treatment), first hypoxic measurement under hypercapnic conditions, without propofol
[7] = Compound A (dose not given; third treatment), hypoxic/hypercapnic measurement during propofol high dose
[8] = Compound A low dose, first hypoxic measurement under hypercapnic conditions, without propofol
[9] = Compound A low dose, hypoxic/hypercapnic measurement during propofol high dose

CCCNc1nc(NCCC)nc(N(C)OC)n1 [Compound A]
AUCinf Min ([1]; ENA-001 high dose, N 12): 6235 ng·h/mL
AUClast Max ([1]; ENA-001 high dose, N 12): 13169 ng·h/mL
AUClast Min ([1]; ENA-001 high dose, N 12): 6169 ng·h/mL
CL Max ([1]; ENA-001 high dose, N 12): 67.8 L/h
CL Min ([1]; ENA-001 high dose, N 12): 23.8 L/h
Cmax Min ([1]; ENA-001 high dose, N 12): 1090 ng/mL
Cmin Geometric Mean ([1]; ENA-001 high dose, N 12): 867.4 ng/mL
Cmin Max ([1]; ENA-001 high dose, N 12): 1230 ng/mL
Cmin Mean ([1]; ENA-001 high dose, N 12): 886.6 ng/mL
Cmin Median ([1]; ENA-001 high dose, N 12): 859 ng/mL
Cmin Min ([1]; ENA-001 high dose, N 12): 601 ng/mL
t1/2 Max ([1]; ENA-001 high dose, N 12): 8.40 h
t1/2 Min ([1]; ENA-001 high dose, N 12): 3.39 h
tmax Max ([1]; ENA-001 high dose, N 12): 4.50 h
tmax Min ([1]; ENA-001 high dose, N 12): 1.92 h
AUCinf Max ([1]; ENA-001 low dose, N 12): 3148 ng·h/mL
AUCinf Min ([1]; ENA-001 low dose, N 12): 2155 ng·h/mL
AUClast Max ([1]; ENA-001 low dose, N 12): 3059 ng·h/mL
AUClast Min ([1]; ENA-001 low dose, N 12): 2151 ng·h/mL
CL Max ([1]; ENA-001 low dose, N 12): 75.5 L/h
CL Min ([1]; ENA-001 low dose, N 12): 41.9 L/h
Cmax Max ([1]; ENA-001 low dose, N 12): 563 ng/mL
Cmax Min ([1]; ENA-001 low dose, N 12): 375 ng/mL
Cmin Geometric Mean ([1]; ENA-001 low dose, N 12): 299.6 ng/mL
Cmin Max ([1]; ENA-001 low dose, N 12): 379 ng/mL
Cmin Mean ([1]; ENA-001 low dose, N 12): 302.3 ng/mL
Cmin Median ([1]; ENA-001 low dose, N 12): 296 ng/mL
Cmin Min ([1]; ENA-001 low dose, N 12): 251 ng/mL
t1/2 Max ([1]; ENA-001 low dose, N 12): 6.99 h
t1/2 Min ([1]; ENA-001 low dose, N 12): 3.00 h
tmax Max ([1]; ENA-001 low dose, N 12): 4.50 h
tmax Min ([1]; ENA-001 low dose, N 12): 3.33 h
Plasma values at 24 hours post-dose ([1]; all participants, both dose levels): above the LLOQ
AUC(0-inf) ([1]; ENA-001 high dose, N 12, read-out: AUCinf Geometric Mean): 8440 ng·h/mL
AUC(0-inf) ([1]; ENA-001 high dose, N 12, read-out: AUCinf Mean): 8710 ng·h/mL
AUC(0-inf) ([1]; ENA-001 high dose, N 12, read-out: AUCinf Median): 7800 ng·h/mL
AUC(0-t) ([1]; ENA-001 high dose, N 12, read-out: AUClast Geometric Mean): 8240 ng·h/mL
AUC(0-t) ([1]; ENA-001 high dose, N 12, read-out: AUClast Mean): 8500 ng·h/mL
AUC(0-t) ([1]; ENA-001 high dose, N 12, read-out: AUClast Median): 7540 ng·h/mL
clearance ([1]; ENA-001 high dose, N 12, read-out: CL Geometric Mean (converted)): 735 mL/min
clearance ([1]; ENA-001 high dose, N 12, read-out: CL Mean (converted)): 756 mL/min
clearance ([1]; ENA-001 high dose, N 12, read-out: CL Median (converted)): 772 mL/min
Cmax ([1]; ENA-001 high dose, N 12, read-out: Cmax Geometric Mean): 1510 ng/mL
Cmax ([1]; ENA-001 high dose, N 12, read-out: Cmax Mean): 1560 ng/mL
Cmax ([1]; ENA-001 high dose, N 12, read-out: Cmax Median): 1520 ng/mL
half-life ([1]; ENA-001 high dose, N 12, read-out: t1/2 Geometric Mean (converted)): 5.49 h
half-life ([1]; ENA-001 high dose, N 12, read-out: t1/2 Mean (converted)): 5.64 h
half-life ([1]; ENA-001 high dose, N 12, read-out: t1/2 Median (converted)): 5.63 h
Tmax ([1]; ENA-001 high dose, N 12, read-out: tmax Geometric Mean): 3.84 h
Tmax ([1]; ENA-001 high dose, N 12, read-out: tmax Mean): 3.96 h
Tmax ([1]; ENA-001 high dose, N 12, read-out: tmax Median): 4.36 h
AUC(0-inf) ([1]; ENA-001 low dose, N 12, read-out: AUCinf Geometric Mean): 2660 ng·h/mL
AUC(0-inf) ([1]; ENA-001 low dose, N 12, read-out: AUCinf Mean): 2670 ng·h/mL
AUC(0-inf) ([1]; ENA-001 low dose, N 12, read-out: AUCinf Median): 2650 ng·h/mL
AUC(0-t) ([1]; ENA-001 low dose, N 12, read-out: AUClast Geometric Mean): 2610 ng·h/mL
AUC(0-t) ([1]; ENA-001 low dose, N 12, read-out: AUClast Mean): 2630 ng·h/mL
AUC(0-t) ([1]; ENA-001 low dose, N 12, read-out: AUClast Median): 2630 ng·h/mL
clearance ([1]; ENA-001 low dose, N 12, read-out: CL Geometric Mean (converted)): 918 mL/min
clearance ([1]; ENA-001 low dose, N 12, read-out: CL Mean (converted)): 929 mL/min
clearance ([1]; ENA-001 low dose, N 12, read-out: CL Median (converted)): 885 mL/min
Cmax ([1]; ENA-001 low dose, N 12, read-out: Cmax Geometric Mean): 463 ng/mL
Cmax ([1]; ENA-001 low dose, N 12, read-out: Cmax Mean): 468 ng/mL
Cmax ([1]; ENA-001 low dose, N 12, read-out: Cmax Median): 477 ng/mL
half-life ([1]; ENA-001 low dose, N 12, read-out: t1/2 Geometric Mean (converted)): 4.99 h
half-life ([1]; ENA-001 low dose, N 12, read-out: t1/2 Mean (converted)): 5.1 h
half-life ([1]; ENA-001 low dose, N 12, read-out: t1/2 Median (converted)): 5.05 h
Tmax ([1]; ENA-001 low dose, N 12, read-out: tmax Geometric Mean): 4.25 h
Tmax ([1]; ENA-001 low dose, N 12, read-out: tmax Mean): 4.26 h
Tmax ([1]; ENA-001 low dose, N 12, read-out: tmax Median): 4.33 h
AUC(0-inf) ([1]; high dose, read-out: highest individual AUCinf): 13800 ng·h/mL
Cmax ([1]; high dose, read-out: highest individual Cmax): 2600 ng/mL
AUC(0-inf) ([1]; high dose, read-out: mean (±SD) AUCinf): 8710 ± 2420 ng·h/mL
Cmax ([1]; high dose, read-out: mean (±SD) Cmax): 1560 ± 437 ng/mL
half-life ([1]; high dose, read-out: range of apparent terminal t1/2): 3.39 to 8.4 h
Tmax ([1]; high dose, read-out: tmax (mean peak concentrations)): 3.96 h
AUC(0-inf) ([1]; low dose, read-out: mean (±SD) AUCinf): 2670 ± 330 ng·h/mL
Cmax ([1]; low dose, read-out: mean (±SD) Cmax): 468 ± 68.2 ng/mL
half-life ([1]; low dose, read-out: range of apparent terminal t1/2): 3 to 6.99 h
Tmax ([1]; low dose, read-out: tmax (mean peak concentrations)): 4.26 h
Plasma concentration decline after infusion stop ([1]; from 4 hour 30 minutes onwards): bi-exponential decline
Average tmin ([1]; high dose): 1.133 h
Geometric mean Cav30-270 min (average arterial plasma concentration during 30-270 min) ([1]; high dose): 1161.69 ng/mL
Maximum concentration on average following IV infusion loading dose ([1]; high dose, 20 minutes loading dose 2.0 mg/kg/h): 1162.833 ng/mL
average Compound A concentration per propofol dosing interval ([1]; high dose, high propofol 200-270 min): 1412.28 ng/mL
average Compound A concentration per propofol dosing interval ([1]; high dose, low propofol 115-185 min): 1206.27 ng/mL
average Compound A concentration per propofol dosing interval ([1]; high dose, no propofol 30-100 min): 971.79 ng/mL
Effect of propofol on Compound A concentrations ([1]; in vivo): No apparent effect
Dose proportionality of PK ([1]; investigated dosing range, dose normalised AUC and Cav): Dose proportionality of PK over the investigated dosing range was apparent; also recorded: Dose proportionality of PK was apparent over the investigated dosing range; also recorded: showed dose proportionality over the investigated dosing range
Average tmin ([1]; low dose): 1.201 h
Geometric mean Cav30-270 min (average arterial plasma concentration during 30-270 min) ([1]; low dose): 366.40 ng/mL
Maximum concentration on average following IV infusion loading dose ([1]; low dose, 10 minutes loading dose 2.0 mg/kg/h): 857.000 ng/mL
average Compound A concentration per propofol dosing interval ([1]; low dose, high propofol 200-270 min): 427.54 ng/mL
average Compound A concentration per propofol dosing interval ([1]; low dose, low propofol 115-185 min): 359.75 ng/mL
average Compound A concentration per propofol dosing interval ([1]; low dose, no propofol 30-100 min): 323.41 ng/mL
Steady state ([1]; within the 260 and 250 minute infusions): steady-state concentrations were not reached; also recorded: did not reach steady state
Nausea probably related to treatment ([2]; Compound A high dose, IV ondansetron pre-treatment): single occurrence of mild nausea
Treatment-related SAEs ([2]; in vivo): No treatment-related SAEs
Trend in AEs ([2]; in vivo): mild infusion site pain and related events
Safety and tolerability ([2]; two dose levels, healthy participants): safe and well tolerated; also recorded: favourable safety and tolerability profiles
Cardiovascular response [3]: No clinically meaningful difference on cardiovascular response
Level of propofol-induced sedation / arousal, BIS ([3]; with clinically relevant doses of propofol): did not impact the level of the propofol-induced sedation; also recorded: did not lead to a significant difference in arousal compared to placebo
Minute ventilation during hypoxic measurement [4, 6]: 38.8 L/min
Minute ventilation, pre-hypoxic baseline [4, 6]: 8.5 L/min
Minute ventilation during hypoxic measurement [4, 7]: 27.4 L/min
Minute ventilation, pre-hypoxic baseline [4, 7]: 8.4 L/min
ETCO2 difference prior to each hypoxic measurement ([4]; Compound A high dose compared to placebo and low dose): approximately 3 mmHg
Increase in minute ventilation induced by hypercapnia ([4]; Compound A high dose group, during high dose propofol): more pronounced
Respiratory rate at pre-hypoxic timepoints ([4]; Compound A high dose, during propofol infusion): difference between Compound A high dose compared to placebo and Compound A low dose could be observed
ETCO2 compared to placebo ([4]; Compound A low dose): comparable to placebo treatment
Hypoxic Sensitivity, First LSM of contrast ([4]; Compound A low dose (2 mg/kg/h 10 min then 0.4 mg/kg/h 260 min IV)): 0.747 L/min/%
Minute ventilation during hypoxic measurement [4, 8]: 30.3 L/min
Minute ventilation, pre-hypoxic baseline [4, 8]: 8.1 L/min
Minute ventilation during hypoxic measurement [4, 9]: 15.0 L/min
Minute ventilation, pre-hypoxic baseline [4, 9]: 6.3 L/min
Hypoxic sensitivity compared to placebo ([4]; both with and without co-administration of propofol): increased hypoxic sensitivity compared to placebo
Hypoxic Sensitivity, First LSM of contrast ([4]; high dose (2 mg/kg/h 20 min then 1.1 mg/kg/h 250 min IV)): 1.179 L/min/%
Hypoxic Sensitivity, Estimate of the difference ([4]; high dose minus placebo): 0.575 L/min/%
Hypoxic sensitivity during propofol ([4]; in vivo, 1.1 mg/kg): remain similar to pre-propofol values
Hypoxic Sensitivity, Estimate of the difference ([4]; low dose minus placebo): 0.144 L/min/%
Ventilatory stimulation ([5]; high dose (1.1 mg/kg/h), healthy participants, Roozekrans et al., 2014): clear ventilatory stimulation
Stimulatory effects on minute ventilation ([5]; low dose (0.4 mg/kg/h), McLeod et al., 2014): no/minimal stimulatory effects on minute ventilation
Nausea in previous studies ([5]; previous studies): nausea was associated with Compound A administration
